Experimental findings from patent US9133224B2, “Macrocyclic kinase inhibitors” (OSI Pharmaceuticals, LLC, priority 2010, dated 2015) are described below.

Where two headings read alike, the source gives them in different places.

For series [1] the following is noted: 22-membered ring.
For a further series, the target named is T1, FAK (Homo sapiens, UniProt Q05397).
T1 construct: endogenous in cells; host or cells: U87MG glioblastoma cells (ATCC HTB-14)
Nature of the series: Cell-based capture ELISA for inhibition of FAK autophosphorylation [pY397] in U87MG cells. In short, it runs like this: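 U87MG cells on fibronectin-coated plates treated with compounds for 2 h at 37° C in complete growth medium (0.6% DMSO final). Lysates captured on anti-FAK ELISA plates; pY397 detected with phospho-specific antibody, HRP and chromogen at 450 nm. Variant run with 50% (v/v) mouse or human plasma.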

For series [2], the target named is T2, GST-tagged full-length FAK enzyme (PTK2) (Homo sapiens, UniProt Q05397).
T2 construct: GST-tagged full-length FAK enzyme (PTK2, Invitrogen PV4085); GST; purchased Invitrogen PV4085
T2 sequence (Q05397 whole entry): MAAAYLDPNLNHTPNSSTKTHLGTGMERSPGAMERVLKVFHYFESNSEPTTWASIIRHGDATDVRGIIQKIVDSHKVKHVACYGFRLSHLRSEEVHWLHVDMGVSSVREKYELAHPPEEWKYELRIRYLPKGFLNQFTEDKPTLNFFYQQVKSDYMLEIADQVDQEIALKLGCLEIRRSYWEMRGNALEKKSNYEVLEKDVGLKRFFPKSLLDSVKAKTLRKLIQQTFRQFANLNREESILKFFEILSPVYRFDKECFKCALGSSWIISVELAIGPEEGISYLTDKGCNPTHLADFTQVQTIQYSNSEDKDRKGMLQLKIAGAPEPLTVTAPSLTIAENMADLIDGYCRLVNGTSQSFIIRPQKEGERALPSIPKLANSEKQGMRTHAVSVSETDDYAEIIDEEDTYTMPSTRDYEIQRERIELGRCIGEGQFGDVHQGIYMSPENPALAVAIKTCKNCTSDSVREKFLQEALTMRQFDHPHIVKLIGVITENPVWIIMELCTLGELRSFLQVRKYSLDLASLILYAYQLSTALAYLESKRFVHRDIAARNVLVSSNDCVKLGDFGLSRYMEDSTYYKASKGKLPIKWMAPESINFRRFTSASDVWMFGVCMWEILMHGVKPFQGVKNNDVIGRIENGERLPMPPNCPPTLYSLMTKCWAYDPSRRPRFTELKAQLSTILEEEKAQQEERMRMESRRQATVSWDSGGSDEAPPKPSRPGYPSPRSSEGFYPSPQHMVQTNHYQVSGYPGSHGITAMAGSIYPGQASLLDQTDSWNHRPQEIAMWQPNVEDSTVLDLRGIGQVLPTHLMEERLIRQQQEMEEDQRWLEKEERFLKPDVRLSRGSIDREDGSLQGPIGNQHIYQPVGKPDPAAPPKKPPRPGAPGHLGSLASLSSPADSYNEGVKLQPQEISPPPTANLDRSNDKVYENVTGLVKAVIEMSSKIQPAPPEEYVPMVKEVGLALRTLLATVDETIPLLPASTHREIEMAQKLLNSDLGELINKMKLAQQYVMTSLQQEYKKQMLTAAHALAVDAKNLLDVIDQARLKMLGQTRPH
Nature of the series: Biochemical Omnia Assay (FAK). Summed up:
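GST-tagged full-length human FAK, added at 50 nM to compound and a peptide (40 μM)/ATP (200 μM) solution, stated before mixing. Omnia peptide phosphorylation followed continuously by fluorescence increase. Duplicate points; IC50 by nonlinear fitting of linear progress-curve slopes.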

Where [3] appears, read: 50% (v/v) human plasma, mean IC50, read-out: FAK Activity Mechanistic (U87MG) HP.
Setting [4] is: no plasma present, mean IC50, read-out: FAK Activity Mechanistic (U87MG) NP.
Setting [5] is: from CCC[CH2][Sn]([CH2]CCC)([CH2]CCC)[c]1cn(CCCOP(=O)(CCC)Cc2ccc(Nc3ncc(C(F)(F)F)c(Nc4ccc(Br)nc4C(=O)NC)n3)c(OC)c2)nn1, cc_pd bond.
[6] abbreviates: from CCC[CH2][Sn]([CH2]CCC)([CH2]CCC)[c]1cn(CCCOP(=O)(Cc2ccc(Nc3ncc(C(F)(F)F)c(Nc4ccc(Br)nc4C(=O)NC)n3)c(OC)c2)OCC)nn1, cc_pd bond, 2 steps.

T1 sequence (Q05397 whole entry): as above

`CCC[P@]1(=O)Cc2ccc(c(OC)c2)Nc2ncc(C(F)(F)F)c(n2)Nc2ccc(nc2C(=O)NC)-c2cnn(c2)CCCO1` (mixture of isomers) registered a ring closure, isolated yield in series [1] (from CCCP(=O)(O)Cc1ccc(Nc2ncc(C(F)(F)F)c(Nc3ccc(-c4cnn(CCCO)c4)nc3C(=O)NC)n2)c(OC)c1, ester bond, DCC, 2 steps) of 55%.

As for `CCO[P@]1(=O)Cc2ccc(c(OC)c2)Nc2ncc(C(F)(F)F)c(n2)Nc2ccc(cc2C(=O)N(CC)CC)-c2cnn(c2)CCCO1` (mixture of isomers), the ring closure, isolated yield in series [1] (from CCOP(=O)(O)Cc1ccc(Nc2ncc(C(F)(F)F)c(Nc3ccc(-c4cnn(CCCO)c4)cc3C(=O)N(CC)CC)n2)c(OC)c1, ester bond, PyBOP/DIEA, DCE/DMF, 1.03 mM, 25.0 °C) was found to be 43%.

As to `CCOP1(=O)Cc2ccc(c(OC)c2)Nc2ncc(C(F)(F)F)c(n2)Nc2ccc(nc2C(=O)NC)-c2cc(C(=O)OC)n(c2)CCCO1` (racemic) [Example 38], the IC50 on FAK (setting [3]) is under 400 nM; at FAK (50% (v/v) mouse plasma, mean IC50, read-out: FAK Activity Mechanistic (U87MG) MP), 400 to 4000 nM; on FAK (setting [4]) it was under 400 nM; in series [2], under 400 nM. The molecule further yielded a ring closure, yield of all isomers (from CCOP(=O)(O)Cc1ccc(Nc2ncc(C(F)(F)F)c(Nc3ccc(-c4cc(C(=O)OC)n(CCCO)c4)nc3C(=O)NC)n2)c(OC)c1, ester bond, PyBOP/DIPEA, 1,2-dichloroethane, 1.53 mM, 25.0 °C, 24.0 h) of 58%.

Turning to `CCOP1(=O)Cc2ccc(c(OC)c2)Nc2ncc(C(F)(F)F)c(n2)Nc2ccc(cc2C(=O)N(CC)CC)-c2cnn(c2)CCCO1` (racemic), the ring closure, yield of all isomers (from CCOP(=O)(O)Cc1ccc(Nc2ncc(C(F)(F)F)c(Nc3ccc(-c4cnn(CCCO)c4)cc3C(=O)N(CC)CC)n2)c(OC)c1, ester bond, PyBOP/DIPEA, 1,2-dichloroethane, 1.03 mM, 25.0 °C, 24.0 h) turned out to be 43%.

Consider `CCCP1(=O)Cc2ccc(c(OC)c2)Nc2ncc(C(F)(F)F)c(n2)Nc2ccc(nc2C(=O)NC)-c2cn(nn2)CCCO1` (racemic), for which the ring closure, yield of all isomers under setting [5] stood at 19%.

Regarding `CCC[P@@]1(=O)Cc2ccc(c(OC)c2)Nc2ncc(C(F)(F)F)c(n2)Nc2ccc(nc2C(=O)NC)-c2cn(nn2)CCCO1` (mixture of isomers), the ring closure, isolated yield in series [1] (setting [5]) amounted to 19%.

As for `CCO[P@@]1(=O)Cc2ccc(c(OC)c2)Nc2ncc(C(F)(F)F)c(n2)Nc2ccc(nc2C(=O)NC)-c2cn(nn2)CCCO1`, the ring closure, isolated yield in series [1] (setting [6]) turned out to be 24%.

As for `CCO[P@]1(=O)Cc2ccc(c(OC)c2)Nc2ncc(C(F)(F)F)c(n2)Nc2ccc(nc2C(=O)NC)-c2cc(C(=O)OC)n(c2)CCCO1` (mixture of isomers), the ring closure, isolated yield in series [1] (from CCOP(=O)(O)Cc1ccc(Nc2ncc(C(F)(F)F)c(Nc3ccc(-c4cc(C(=O)OC)n(CCCO)c4)nc3C(=O)NC)n2)c(OC)c1, ester bond, PyBOP/DIEA, DCE, 1.53 mM, 25.0 °C) came to 58%.

Turning to `CCOP1(=O)Cc2ccc(c(OC)c2)Nc2ncc(C(F)(F)F)c(n2)Nc2ccc(nc2C(=O)NC)-c2cn(nn2)CCCO1` (single isomer, unassigned) [Example 64A], the IC50 at FAK (setting [3]) was under 400 nM; at FAK (setting [4]), under 400 nM; in series [2] (mean IC50, [ATP] = 50uM, read-out: FAK Activity Biochemical OMNIA, [ATP] = 50uM) it was under 400 nM. For the same molecule, under setting [6], the ring closure, yield of all isomers was determined as 24%.

As to `CCCP1(=O)Cc2ccc(c(OC)c2)Nc2ncc(C(F)(F)F)c(n2)Nc2ccc(nc2C(=O)NC)-c2cnn(c2)CCCO1` (racemic), where the note is “from CCCP(=O)(O)Cc1ccc(Nc2ncc(C(F)(F)F)c(Nc3ccc(-c4cnn(CCCO)c4)nc3C(=O)NC)n2)c(OC)c1, ester bond, DCC, pyridine, 15.0 mM, 115.0 °C, 5.5 h, 2 steps”, the ring closure, yield of all isomers amounted to 55%.
